Experimental data published in ChEMBL document CHEMBL1150783, “In vitro activities of CG400549, a novel FabI inhibitor, against recently isolated clinical staphylococcal strains in Korea” (2007).
Converted amounts (≈) assume the structure as drawn.

Tests used:
Type in all cases: functional
Staphylococcus sp. [1] = experiment: Antibacterial activity against methicillin-resistant coagulase-negative Staphylococcus sp. by CLSI dilution method
Staphylococcus aureus [2] = experiment: (§1) Antibacterial activity against methicillin-resistant Staphylococcus aureus isolate assessed as percent resistant isolates by CLSI dilution method
Staphylococcus aureus [3] = experiment: Antibacterial activity against methicillin-resistant Staphylococcus aureus isolate assessed as percent susceptible isolates by CLSI dilution method
Staphylococcus sp. [4] = experiment: Antibacterial activity against methicillin-susceptible coagulase-negative Staphylococcus sp. assessed as percent resistant isolates by CLSI dilution method
Staphylococcus aureus [5] = experiment: as §1; remark: listed apart in the source
Staphylococcus sp. [6] = experiment: (§2) Antibacterial activity against methicillin-susceptible coagulase-negative Staphylococcus sp. assessed as percent susceptible isolates by CLSI dilution method
Staphylococcus sp. [7] = experiment: as §2; remark: listed apart in the source
Staphylococcus sp. [8] = experiment: Antibacterial activity against methicillin-susceptible coagulase-negative Staphylococcus sp. by CLSI dilution method
Staphylococcus aureus [9] = experiment: Antibacterial activity against methicillin-susceptible Staphylococcus aureus isolate by CLSI dilution method
Staphylococcus aureus [10] = experiment: Antibacterial activity against methicillin-susceptible Staphylococcus aureus isolate assessed as […] isolates by CLSI dilution method
Staphylococcus aureus [11] = experiment: Antibacterial activity against methicillin-resistant Staphylococcus aureus by CLSI dilution method
Staphylococcus sp. [12] = experiment: Antibacterial activity against methicillin-resistant coagulase-negative Staphylococcus sp. assessed as percent resistant isolates by CLSI dilution method

Structure (SMILES) | MIC50 (Staphylococcus sp. [1]) | MIC90 (Staphylococcus sp. [1]) | Activity (Staphylococcus aureus [2]) | Activity (Staphylococcus aureus [3]) | Activity (Staphylococcus sp. [4]) | Activity (Staphylococcus aureus [5]) | Activity (Staphylococcus sp. [6]) | Activity (Staphylococcus sp. [7]) | MIC50 (Staphylococcus sp. [8]) | MIC90 (Staphylococcus sp. [8]) | MIC50 (Staphylococcus aureus [9]) | MIC90 (Staphylococcus aureus [9]) | Activity (Staphylococcus aureus [10]) | MIC50 (Staphylococcus aureus [11]) | MIC90 (Staphylococcus aureus [11]) | Activity (Staphylococcus sp. [12])
CN(C)[C@@H]1C(O)=C(C(N)=O)C(=O)[C@@]2(O)C(O)=C3C(=O)c4c(O)cccc4[C@@](C)(O)[C@H]3C[C@@H]12 [TETRACYCLINE] | 2 µg/mL (≈ 4.5 µM) | 128 µg/mL (≈ 288 µM) | 12% | 25% | 22% | 75% | 78% | 67% | 0.5 µg/mL (≈ 1.13 µM) | 64 µg/mL (≈ 144 µM) | 1 µg/mL (≈ 2.25 µM) | 32 µg/mL (≈ 72 µM) | 88% | 64 µg/mL (≈ 144 µM) | 128 µg/mL (≈ 288 µM) | 31%
CC[C@H]1OC(=O)[C@H](C)[C@@H](O[C@H]2C[C@@](C)(OC)[C@@H](O)[C@H](C)O2)[C@H](C)[C@@H](O[C@@H]2O[C@H](C)C[C@H](N(C)C)[C@H]2O)[C@](C)(O)C[C@@H](C)C(=O)[C@H](C)[C@@H](O)[C@]1(C)O [ERYTHROMYCIN] | 128 µg/mL (≈ 174 µM) | > 128 µg/mL | 12% | 5% | 17% | 95% | 78% | 20% | 0.25 µg/mL (≈ 0.341 µM) | 128 µg/mL (≈ 174 µM) | 0.5 µg/mL (≈ 0.681 µM) | > 128 µg/mL | 88% | > 128 µg/mL | – | 80%
CCC[C@@H]1C[C@@H](C(=O)N[C@@H]([C@H]2O[C@H](SC)[C@H](O)[C@@H](O)[C@H]2O)[C@H](C)Cl)N(C)C1 [CLINDAMYCIN] | > 128 µg/mL | > 128 µg/mL | 0% | 12% | 3% | 88% | 97% | 44% | 0.12 µg/mL (≈ 0.282 µM) | 0.25 µg/mL (≈ 0.588 µM) | 0.12 µg/mL (≈ 0.282 µM) | 0.12 µg/mL (≈ 0.282 µM) | 100% | > 128 µg/mL | > 128 µg/mL | 54%
CN[C@H](CC(C)C)C(=O)N[C@H]1C(=O)N[C@@H](CC(N)=O)C(=O)N[C@H]2C(=O)N[C@H]3C(=O)N[C@H](C(=O)N[C@H](C(=O)O)c4cc(O)cc(O)c4-c4cc3ccc4O)[C@H](O)c3ccc(c(Cl)c3)Oc3cc2cc(c3O[C@@H]2O[C@H](CO)[C@@H](O)[C@H](O)[C@H]2O[C@H]2C[C@](C)(N)[C@H](O)[C@H](C)O2)Oc2ccc(cc2Cl)[C@H]1O [VANCOMYCIN] | 1 µg/mL (≈ 0.69 µM) | 2 µg/mL (≈ 1.38 µM) | 0% | 100% | 0% | 0% | 100% | 99% | 1 µg/mL (≈ 0.69 µM) | 2 µg/mL (≈ 1.38 µM) | 1 µg/mL (≈ 0.69 µM) | 1 µg/mL (≈ 0.69 µM) | 100% | 1 µg/mL (≈ 0.69 µM) | 1 µg/mL (≈ 0.69 µM) | 0%
